In patent US20250270648A1, “MOLECULAR SIGNATURE FOR ASSESSING THE RESPONSIVENESS OF CANCER TO MITOCHONDRIA-TARGETED ANTIOXIDANTS” (UNIVERSITÉ CATHOLIQUE DE LOUVAIN, priority 2021, published 2025):

Columns and labels:
4T1 cells = test: Migration towards 0.5% serum, chemotaxis chamber; assay type: cell-based, mouse
Description: Previous to migration and invasion assays, cells were pretreated with the indicated amounts of drugs for 16 h, and left to recover for 6 h in full culture medium. Migration assays were performed in a NeuroProbe® standard 48-well chemotaxis chamber according to manufacturer's instructions. Briefly, the bottom chamber was filled with DMEM containing 0.5% serum as a chemo-attractant. Fifty thousand cells were seeded in the upper chamber in the same medium but without serum ±MitoQ where indicated, and allowed to migrate overnight through an 8-μm pore-size polycarbonate membrane. A similar stimulation protocol was used for invasion assays, with the difference of using Matrigel-coated transwells (Corning®). With MCF7 cells, membranes were previously incubated for 30 min with a solution of Vitronectin 10 μg/ml (Sigma-Aldrich®, #SRP3186). Migrated/invaded cells were fixed and stained with 100 μl of a 0.23% crystal violet solution (Sigma-Aldrich®, #C0775) for 10 min before counting on a SpectraMax™ i3 spectrophotometer equipped with a MiniMax imaging cytometer, using the SoftMax Pro software. Data were normalized to vehicle-treated cells (control).

MDA-MB-231 cells [1] = test: Glucose consumption and lactate production, enzymatic assays on CMA600; assay type: cell-based, human; settings: 48 h
Description: (§1) Glucose and lactate concentrations were measured in cell supernatants collected after 48 h of culture ±MitoQ, using specific enzymatic assays on a CMA600 analyzer (Aurora Borealis®), as previously described in Sonveaux et al. (J Clin Invest; 2008; 118, 3930-3942). All data were normalized by total protein content (Bio-Rad® Protein Assay).

SkBr3 cells [2] = test: as above; assay type: cell-based, human; settings: indicated doses of MitoQ, 48 h
Description: as §1

MDA-MB-231 cells [3] = test: Intracellular ATP, CellTiter-Glo; assay type: cell-based, human; settings: MitoQ 100 nM, 48 h
Description: Intracellular ATP levels were measured after 48 h of treatment ±MitoQ, using the CellTiter-Glo Luminescent Viability Assay (Promega®) on a Glomax 96 microplate luminometer (Promega®) following manufacturer's instructions. Results were normalized to cell number.

MMTV-PyMT mice = test: Spontaneous metastatic breast cancer, FEC ±MitoQ; assay type: in vivo, mouse; settings: 6 weeks
From the text: Female FVB/N-Tg(MMTV-PyMT)634Mul/J (MMTV-PyMT) mice that express the polyomavirus middle T antigen spontaneously develop orthotropic multifocal breast adenocarcinomas that spontaneously disseminate metastases to the lungs during mouse lifetime. For spontaneous metastasis assays, female MMTV-PyMT mice (The Jackson Laboratory) were daily observed for signs of spontaneous primary tumors starting at 6 weeks of age. Once tumors became palpable, 4 additional weeks were waited to mimic a clinical time frame between first tumor signs and treatment initiation. Ten weeks-old mice with primary tumors of ˜0.8 cm in diameter received a single dose of FEC chemotherapy (100 mg/Kg 5-FU, 5 mg/Kg epirubicin, 100 mg/Kg cyclophosphamide), a clinically relevant neoadjuvant or adjuvant chemotherapeutic combination. Animals were then randomly assigned to a group receiving daily 18 mg/Kg MitoQ or an equal volume of vehicle by oral gavage. They were sacrificed at 16 weeks-old, and the lungs insufflated with Indian ink for metastasis quantification as described above. Primary tumors were collected, weighted, and processed for RT-qPCR.

MDA-MB-231 cells [4] = test: RNA sequencing; assay type: cell-based, human; settings: MitoQ 500 nM, 48 h; |log 2 fold change|>1 and P<0.01
Description: (§2) MDA-MB-231 and SkBr3 cancer cells were treated ±MitoQ for 48 h. Total mRNA was then extracted using the NucleoSpin RNA kit (Macherey-Nagel®), including DNAse treatment in the intermediary steps. mRNAs were quantified using the Qubit BR dsRNA assay kit (Thermo Fisher Scientific®), and mRNA integrity was evaluated on the Agilent 2100 Bioanalyzer using the RNA 6000 nano kit (Agilent®). All samples had RNA integrity number values ≥7.5. Libraries from control and treated samples were prepared starting from 150 ng of total mRNA using the KAPA RNA HyperPrep Kit with RiboErase (HMR) kit (KAPA Biosystems®) following the manufacturer's recommendations (KR1351—v1.16). Libraries were equimolarly pooled and sequenced on a single lane of an Illumina® NovaSeq 6000 platform. All libraries were sequenced at a depth of >50 million paired-end reads (2×100 bp reads) per sample. All sequencing data were analyzed using the Automated Reproducible MOdular workflow for preprocessing and differential analysis of RNAseq data (ARMOR) pipeline. In this pipeline, reads underwent a quality check using FastQC. Quantification and quality control results were summarized in a MultiQC report before being mapped using Salmon to the transcriptome index that was built using all Ensembl cDNA sequences obtained in the Homo_sapiens.GRCh38.cdna.all.fa file. Then, estimated transcript abundances from Salmon were imported into R using the tximeta package, and analyzed for differential gene expression with edgeR. To get a robust signature, only genes with |log 2 Fold Change|>1 and P<0.01 were retained.

SkBr3 cells [5] = test: RNA sequencing; assay type: cell-based, human; settings: MitoQ 500 nM, 48 h; |log 2 fold change|>1 and P<0.01
Description: as §2

MDA-MB-231 cells [6] = test: Clonogenic assay, adherent; assay type: cell-based, human; settings: MitoQ 100 nM, 48 h
Description: (§3) For adherent assays, MDA-MB-231 and SKBR3 cells were pre-treated for 48 h±MitoQ, and seeded (1,000 to 2,000 cells/well) in 6-well plates. After colony formation (2 weeks), cells were fixed and stained with 0.5% crystal violet in a 10% ethanol solution, for 30 min. Colonies were washed with water and counted. Results are expressed as surviving fraction (SF), where […].

SkBr3 cells [7] = test: Clonogenic assay, adherent; assay type: cell-based, human; settings: MitoQ 100 nM, 48 h
Description: as §3

COC1=C(OC)C(=O)C(CCCCCCCCCC[P+](c2ccccc2)(c2ccccc2)c2ccccc2)=C(C)C1=O [MitoQ] was tested. Which DXR-stimulated cell migration (4T1 cells; 0.1 μg/mL DXR + 100 nM MitoQ) did it give?
The DXR-stimulated cell migration was “inhibited”.

And the “breast cancer cell migration in the presence of cisplatin” value (4T1 cells; indicated doses of cisplatin + 100 nM MitoQ)?
The value was “repressed”.

What about the “glycolytic rate (glucose consumption, lactate production)” value (MDA-MB-231 cells [1]; MitoQ 100 nM) of the same compound?
The value was “increasing”.

What about the “glycolytic compensation with increasing dose” value (MDA-MB-231 cells [1]; indicated doses of MitoQ) of the same compound?
The value was “saturated”.

What about the “glycolytic compensation with increasing dose” value (SkBr3 cells [2]) of the same compound?
Its value is “saturated”.

What about the ATP production (MDA-MB-231 cells [3]) of the same compound?
Its ATP production is “overall decrease”.

And the “number of surface lung metastases” value (MMTV-PyMT mice; FEC + MitoQ 18 mg/kg daily oral vs FEC + vehicle)?
The value was “significantly repressed”.

What about the “total primary tumor weight” value (MMTV-PyMT mice; FEC + MitoQ 18 mg/kg daily oral vs FEC + vehicle, P=0.1395) of the same compound?
The value was “not altered”.

And the mice metastasis-free (MMTV-PyMT mice; FEC + MitoQ 18 mg/kg daily oral, all 15 FEC+ control mice had metastases)?
The mice metastasis-free was 4 of 21.

What about the “number of downregulated transcripts” value (MDA-MB-231 cells [4]) of the same compound?
Its value is 1,943.

What about the “number of upregulated transcripts” value (MDA-MB-231 cells [4]) of the same compound?
Its value is 2,153.

And the “number of downregulated transcripts” value (SkBr3 cells [5])?
Its value is 5.

And the “number of upregulated transcripts” value (SkBr3 cells [5])?
Its value is 20.

And the “clonogenicity in Petri dishes allowing adhesion” value (MDA-MB-231 cells [6])?
The value was “largely inhibited”.

And the “clonogenicity in Petri dishes allowing adhesion” value (SkBr3 cells [7])?
The value was “largely inhibited”.
